Laboratory results from PMC12706794, “Identification and Characterization of a Small-Molecule Inhibitor of the Pseudomonas aeruginosa SOS Response” (ACS Infectious Diseases, 2025).

Key:
[1] = target: T1, RecAPa (Pseudomonas aeruginosa, UniProt P08280); test: Differential scanning fluorimetry (thermal shift) on RecAPa; format: binding, P. aeruginosa; details: read-out: RecAPa ΔTm compared to the control
T1 construct: made in house; host or cells: E. coli BL21(DE3)
Description: To elucidate whether A12 binds RecAPa or LexAPa, the two proteins were submitted to a thermal shift assay by DSF, in the presence of different concentrations of A12 (30–1000 μM; Figure A–C). Controls devoid of A12 were included, as well.
Fluorescence of the SyproOrange dye was measured by a StepOne Real-Time PCR System (Applied Biosystems), while increasing the temperature from 25 to 95 °C (0.5 °C/min). Normalized fluorescence intensity curves were compared to observe macroscopic differences in the recorded melting profiles, while derivative curves were analyzed to find exact protein melting temperatures (T m, corresponding to derivative curve minimum). Melting curves were repeated twice, and duplicates were considered coherent if T m differences were lower than 1 °C.
Target sequence in this assay (P08280 2-346): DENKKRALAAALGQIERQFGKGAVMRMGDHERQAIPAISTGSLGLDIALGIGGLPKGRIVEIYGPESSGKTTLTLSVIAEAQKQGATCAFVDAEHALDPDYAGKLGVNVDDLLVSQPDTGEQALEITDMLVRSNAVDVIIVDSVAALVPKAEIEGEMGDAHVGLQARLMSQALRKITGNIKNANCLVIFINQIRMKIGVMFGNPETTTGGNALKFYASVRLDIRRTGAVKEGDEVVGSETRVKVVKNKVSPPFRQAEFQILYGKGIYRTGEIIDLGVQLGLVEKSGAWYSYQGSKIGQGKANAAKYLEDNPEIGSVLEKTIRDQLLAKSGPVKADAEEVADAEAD

[2] = target: T1, RecAPa; test: Isothermal titration calorimetry on RecAPa; format: binding, P. aeruginosa
Description: (§1) To investigate deeper the binding of A12 to the two members of the P. aeruginosa SOS complex, ITC was performed on RecAPa and LexAPa ^S125A (Figure D,E). The integrated binding isotherms of both proteins were best fitted by a “one set of sites” model.
(§2) 64 μM RecAPa and 58.5 μM LexAPa ^S125A were titrated with the selected compound (2.5 mM solution) using a Microcal PEAQ-ITC instrument (Malvern Panalytical) at 25 °C with a stirring rate of 750 rpm. Proteins and the ligand were dissolved in ITC Buffer (20 mM Tris–HCl, 150 mM NaCl, 5% v/v DMSO, pH 7.5). An initial 0.4 μL injection (excluded from data analysis) was followed by 24 injections of 1.5 μL with a spacing of 150 s between each addition. Blank experiments were performed by injecting the titrant compound in a protein-devoid ITC Buffer. Blank curves were subtracted from all of the experiments. Data were analyzed by using the MicroCal PEAQ-ITC Evaluation software (Malvern Panalytical). Integrated heat signals were fitted by a “one set of sites” binding model to obtain enthalpy changes (ΔH), dissociation constants (K D), and stoichiometry of binding.
Target sequence in this assay (P08280 whole entry): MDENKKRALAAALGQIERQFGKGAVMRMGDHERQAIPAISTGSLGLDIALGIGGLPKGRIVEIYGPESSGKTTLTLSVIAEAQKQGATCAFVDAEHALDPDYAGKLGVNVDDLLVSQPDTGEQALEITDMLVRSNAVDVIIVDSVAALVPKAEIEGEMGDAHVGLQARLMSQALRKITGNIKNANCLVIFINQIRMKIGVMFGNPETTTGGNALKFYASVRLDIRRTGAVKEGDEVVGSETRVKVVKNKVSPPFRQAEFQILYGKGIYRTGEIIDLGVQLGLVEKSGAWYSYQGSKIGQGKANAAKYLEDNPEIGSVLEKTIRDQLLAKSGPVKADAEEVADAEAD

[3] = target: T2, LexAPa S125A (Pseudomonas aeruginosa, UniProt P37452, S125A); test: Isothermal titration calorimetry on LexAPa S125A; format: binding, P. aeruginosa
T2 construct: Concerning full-length LexAPa ^S125A, a biphasic melting curve was obtained for the pure protein; made in house; host or cells: E. coli BL21(DE3)
T2 sequence (P37452 2-204 S125A): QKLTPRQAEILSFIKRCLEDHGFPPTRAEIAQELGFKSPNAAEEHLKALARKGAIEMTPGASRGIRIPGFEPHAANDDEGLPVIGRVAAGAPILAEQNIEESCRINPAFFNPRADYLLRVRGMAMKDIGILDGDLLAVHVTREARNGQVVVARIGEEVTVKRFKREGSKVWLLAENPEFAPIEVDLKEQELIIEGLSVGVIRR
Description: as §1, §2

[4] = target: T3, LexAPa S125A / SOS-box dsDNA (Pseudomonas aeruginosa, UniProt P37452, S125A); test: EMSA of LexAPa S125A binding to SOS box dsDNA; format: biochemical, P. aeruginosa; details: 60-fold molar excess of A12
T3 construct: Concerning full-length LexAPa ^S125A, a biphasic melting curve was obtained for the pure protein; made in house; host or cells: E. coli BL21(DE3)
T3 sequence (P37452 2-204 S125A): as above
Description: LexAPa DNA-binding activity–which has to be preserved for an anti-SOS strategy to be effective–resides on the NTD but requires dimerization via the CTD. In this context, to rule out any interfering effect of A12 on LexAPa binding to SOS-box DNA, an EMSA was performed by incubating LexAPa with operator dsDNA sequences and different doses of A12, before analyzing the mixtures on native polyacrylamide gels.
An EMSA of the SOS-box dsDNA in the presence of full-length LexAPaS125A and different concentrations of the hit compound was performed to observe the potential interference effects of the selected drug on LexAPa binding to operator DNA sequences.
SOS-box dsDNA was produced by mixing equimolar amounts of AT-repeat_For and AT-repeat_Rev oligonucleotides (Supplementary, Table S1) in annealing buffer (10 mM Tris–HCl, 50 mM NaCl, 1 mM EDTA, pH 7.5), heating at 95 °C for 5 min, and then allowing the mixture to cool down to room temperature slowly overnight. The E. coli “AT-repeat” operator sequence was used as it is fully compatible with the P. aeruginosa SOS-box consensus (CTG-N2-T-N7-CAG).
1 μM SOS-box dsDNA was incubated either alone or with 8 μM 6His-LexAPa ^S125A in EMSA buffer (50 mM Tris–HCl, 750 mM KCl, 0.5 mM EDTA, pH 7.4). […]

[5] = tested on: P. aeruginosa PAO1; test: Antimicrobial susceptibility testing (MIC); format: cell-based, P. aeruginosa PAO1 (ATCC 15692); details: A12 (32 μg/mL) (−)
Description: The MIC of compound A12 and antibiotics was determined by using the Clinical Laboratory Standard Institute (CLSI) recommendations with minor modifications. […] Microplates were incubated in a humidified incubator for 18 h at 37 °C, and the bacterial growth was quantified by OD600. According to CLSI, MICs are defined as the lowest concentrations of antimicrobial agents that prevent visible growth.

[6] = tested on: P. aeruginosa PAO1 on A549 lung epithelial cells; test: P. aeruginosa PAO1 colonization of A549 lung epithelial cells; format: cell-based
[7] = ESI-MS analysis of A12 in buffer; format: physicochemical; details: 2 mM A12 in FP assay buffer, no DTT
Description: The same analysis was conducted after treatment of A12 with 2 mM DTT (Figure B). In this sample, the MS signals corresponding to the disulfide adduct were absent, leading to the conclusion that the dimerization of A12 by the formation of a disulfide bridge can occur under physiological conditions. When in monomeric form, the compound is likely degraded and/or not detectable by MS under the tested experimental conditions.
MS analysis was carried out on 5 μL samples of compound A12 (2 mM), of the proteins 6His-LexAPa and 6His-RecAPa (50 μM), and of the same proteins incubated with 2 mM A12 (2 h incubation at 25 °C, 10% v/v DMSO in 100 mM NaHCO3 pH 7.0). Aliquots of the latter samples were treated with 5 mM dithiothreitol (DTT) for 1 h at 25 °C before being buffer-exchanged in 100 mM NaHCO3 at pH 7.0. Samples were analyzed by an electrospray ionization (ESI) mass spectrometer equipped with a Xevo G2-XS ESI-Q-TOF mass spectrometer (Waters Corporation, Milford, Massachusetts, USA). Measurements were carried out at 1.5–1.8 kV capillary voltage and 30–40 V cone voltage.

[8] = combination of ciprofloxacin 0.5 μg/mL and A12 100 μg/mL

O=C(O)CCNc1ccccc1S [A12, 3-(2-sulfanylanilino)propanoic acid]
ΔTm at 1000 µM [1]: 10 °C | Kd [2]: 18 ± 3 µM | Kd [3]: 7.4 ± 0.5 µM | LexAPa SOS box DNA-binding activity in the presence of A12 [4]: retained full SOS box DNA-binding activity | MIC on P. aeruginosa PAO1 [5]: no antimicrobial activity | MIC ([5]; Pseudomonas aeruginosa, PAO1): > 32 µg/mL | Intracellular (internalized) burden of PAO1 in A549 cells ([6]; A12 100 μg/mL alone): reduced the internalized bacterial growth | Intracellular (internalized) burden of PAO1 in A549 cells [6, 8]: synergized with ciprofloxacin | Total (adherent + intracellular) burden of PAO1 on A549 lung cells [6, 8]: significantly reduced colonization | Form of A12 in solution by MS [7]: mainly exists as a disulfide-bridged self-dimer in solution
